In brackets after ≈: the same amount, converted by molar mass. Entries after “also recorded” stand apart in the source; their conditions may differ. Marks after values point to notes of the source that are not given here. Blank lines part the entries; values can stand above or below the compound they belong to.
Assays:
[1] = tested on: P. chrysogenum ATCC 10106; experiment: Well-diffusion antifungal activity; type: cell-based, Penicillium chrysogenum; settings: 1000 µg/ml; for zone of inhibition at 1000 µg/mL: Penicillium chrysogenum, ATCC10106, 72 h, 28 °C, read-out: IZD
Experimental: (§1) This study investigated strains of four distinct fungal pathogens: Aspergillus flavus ATCC 9643, A. niger ATCC 11414, Rhizopus oryzae ATCC 96382, and Penicillium chrysogenum ATCC 10106. Every strain was acquired from the Dep. of Micro. Fac. Agric., […] Uni., in Egypt. Initially kept and preserved in malt agar medium at 4 °C, the pathogens were then grown overnight at 28 °C in malt broth medium to evaluate the antifungal activity. Fungal pathogen standard inoculum was prepared by following the procedure described by. To assess the antifungal activity, the pathogens were first maintained and stored at 4 °C in malt agar medium. They were then cultured in malt broth medium for a whole night at 28 °C. According to [22], the well-diffusion technique was used to test the antifungal activity. This included using a 9.0 mm cork borer that had been sterilized to create wells in the malt agar layer. […] After adding 1000 μg/ml of control pyrazole compounds and the standard antifungal (Fluconazole 1000 μg/ml) to each well, the petri dishes were incubated at 28 °C for 72 h. The diameter of the standard reference antifungal was compared to the millimeters measurements of the inhibitory zones. The formula according to [22] was utilized to compute the activity index (AI).1 [drawing 1]

A. niger ATCC 11414 [2] = experiment: Well-diffusion antifungal activity; type: cell-based, Aspergillus niger; settings: 1000 µg/ml, 72 h, 28 °C; for zone of inhibition at 1000 µg/mL: Aspergillus niger, ATCC11414, read-out: IZD
A. niger ATCC 11414 [3] = experiment: Minimal fungal inhibitory concentration (MFIC); type: cell-based, Aspergillus niger; design: key to Growth in MFIC test: -: No detected growth; +: Growth observed; settings: 72 h, 28 °C
Experimental: (§2) In diagnostic laboratories, minimum inhibitory concentrations (MICs) are essential for confirming fungal resistance to an antifungal drug and monitoring the effectiveness of new antifungal medicines. MICs were computed in accordance with the recommendations established by the National Committee for Clinical Laboratory Standards (CLS). In dimethyl sulfoxide (DMSO), pyrazoles were serially diluted twice (1/2, 1/4, and 1/8) and heated at 70 °C for 10 min to get final concentrations of 1000–125 μg/ml, respectively. After that, these dilutions were put into wells that had already been created on plates with fungal infestations. Using a calibrated micropipette, fungus spore suspensions were prepared and added to malt agar welled plates then incubated for 72 h at 28 °C.

A. niger ATCC 11414 [4] = experiment: Minimal lethal fungal concentration (MLFC); type: cell-based, Aspergillus niger; design: key to Growth in MLFC test: -: No detected growth; +: Growth observed
Experimental: (§3) The term “minimal lethal fungal concentration” (MLFC) refers to the lowest concentration of an antifungal drug that may […]. The fungus was initially subjected to different concentrations of the pyrazole compounds in order to ascertain this concentration. After that, the growth from the MIFC stage was moved to regular malt agar plates. After that, these plates are incubated for 72 h at 28 °C. After then, any growth—or lack thereof—is noted and studied.
(§4) Following the acquisition of the MFIC and MLFC records, the ratio was computed. The fungicidal activity of a pyrazole compound is defined as a ratio […].

A. flavus ATCC 9643 [5] = experiment: Well-diffusion antifungal activity; type: cell-based, Aspergillus flavus; settings: 1000 µg/ml; for zone of inhibition at 1000 µg/mL: Aspergillus flavus, ATCC9643, read-out: IZD
Experimental: as §1

R. oryzae ATCC 96382 = experiment: Well-diffusion antifungal activity; type: cell-based, Rhizopus oryzae; settings: Rhizopus arrhizus, ATCC96382; 1000 µg/ml, 72 h, 28 °C; read-out: IZD
Experimental: as §1

A. flavus ATCC 9643 [6] = experiment: Minimal lethal fungal concentration (MLFC); type: cell-based, Aspergillus flavus; design: key to Growth in MLFC test: -: No detected growth; +: Growth observed
Experimental: as §3, §4

A. flavus ATCC 9643 [7] = experiment: Minimal fungal inhibitory concentration (MFIC); type: cell-based, Aspergillus flavus; design: key to Growth in MFIC test: -: No detected growth; +: Growth observed; settings: 72 h, 28 °C
Experimental: as §2

[8] = tested on: A. niger ATCC 11414 and A. flavus ATCC 9643; experiment: Activity spectrum in MFIC/MLFC tests (share of strains inhibited); type: cell-based, Aspergillus niger, Aspergillus flavus
Experimental: as §2, §3

[9] = Biocompatibility, MTT assay; type: cell-based, human; settings: human, HFB4 normal human skin cells
Experimental: (§5) A complete monolayer sheet was created by incubating the 96-well tissue culture plate at 37 °C for 24 h following inoculation with 1 × 10^5 cells/ml (100 µl/well), following the procedure described by. Following the establishment of a confluent sheet of cells, the growth material was collected from the 96-well micro titer plates, and the cell monolayer underwent two washing media washes. […] They then evaluated 0.1 ml of each dilution in several wells. We looked at the cells for physical signs of toxicity, including granulation, rounding, shrinkage, and partial or complete loss of the monolayer. Following the phosphate buffer solution’s preparation, each well received 20 µl of a 5 mg/ml MTT (3-(4,5-dimethylthiazol-2-yl-)-2,5 diphenyltetrazolium bromide) solution from Bio Basic Canada Inc. After that, place it on a shaking table and shake it for five minutes at 150 rpm to completely integrate the MTT. to allow MTT to metabolize, followed by incubation for 4 h at 37 °C with 5% CO2. Media was taken out if necessary, and paper towels were used to wipe out any remaining material from the plate. One may re-dissolve formazan, a metabolic product of MTT, in 200 µL of DMSO. Put on a shaking table and shaken for five minutes at 150 rpm to fully mix the formazan and solvent. At 560 nm, optical density was measured, and at 620 nm, background was subtracted. There should be a direct relationship between optical density and cell number.3 [drawing 3]

[10] = tested on: HFB4 normal human skin cell line; experiment: Biocompatibility, MTT assay; type: cell-based
Experimental: as §5

A. flavus = tested on: A. flavus; design: method as in PMID 31926784; settings: cited from earlier work
A. niger = tested on: A. niger; design: method as in PMID 31926784; settings: cited from earlier work
A. fumigatus = tested on: A. fumigatus; design: method as in PMID 31926784; settings: cited from earlier work
[11] = relative to Fluconazole 1000 µg/ml

Changes of HFB4 cells ([10]; concentrations 31.25–1000 µg/ml): no significant changes
SMILES: COc1ccc(NC(=O)/C(C#N)=C/c2cn(-c3ccccc3)nc2-c2ccccc2)cc1 [3b]
AI (activity index) [1, 11]: 0.87
zone of inhibition at 1000 µg/mL [1]: 20 ± 0.11 mm
IZD (A. niger ATCC 11414 [2]): 32 ± 0.14^a mm
zone of inhibition at 1000 µg/mL (A. niger ATCC 11414 [2]): 32 mm
Growth in MFIC test (A. niger ATCC 11414 [3]; 125 µg/ml): +
Growth in MFIC test (A. niger ATCC 11414 [3]; 250 µg/ml): -
Growth in MFIC test (A. niger ATCC 11414 [3]; 500 µg/ml): -
Growth in MFIC test (A. niger ATCC 11414 [3]; 1000 µg/ml): -
Dose of MFIC (A. niger ATCC 11414 [3]): 250 µg/mL
Antifungal effect (ratio of MLFC and MFIC) (A. niger ATCC 11414 [4]): 2
Growth in MLFC test (A. niger ATCC 11414 [4]; 125 µg/ml, 72 h, 28 °C): +
Growth in MLFC test (A. niger ATCC 11414 [4]; 250 µg/ml, 72 h, 28 °C): +
Growth in MLFC test (A. niger ATCC 11414 [4]; 500 µg/ml, 72 h, 28 °C): -
Growth in MLFC test (A. niger ATCC 11414 [4]; 1000 µg/ml, 72 h, 28 °C): -
Dose of MLFC (A. niger ATCC 11414 [4]; 72 h, 28 °C): 500 µg/mL
IZD (A. flavus ATCC 9643 [5]; 72 h, 28 °C): 30 ± 0.13^b mm
AI (activity index) (A. flavus ATCC 9643 [5]; [11]): 1.0
zone of inhibition at 1000 µg/mL (A. flavus ATCC 9643 [5]; 72 h, 28 °C): 30 mm
zone of inhibition at 1000 µg/mL (R. oryzae ATCC 96382): 0 mm
Antifungal effect (ratio of MLFC and MFIC) (A. flavus ATCC 9643 [6]): 2
Growth in MLFC test (A. flavus ATCC 9643 [6]; 125 µg/ml, 72 h, 28 °C): +
Growth in MLFC test (A. flavus ATCC 9643 [6]; 250 µg/ml, 72 h, 28 °C): +
Growth in MLFC test (A. flavus ATCC 9643 [6]; 500 µg/ml, 72 h, 28 °C): -
Growth in MLFC test (A. flavus ATCC 9643 [6]; 1000 µg/ml, 72 h, 28 °C): -
Dose of MLFC (A. flavus ATCC 9643 [6]; 72 h, 28 °C): 500 µg/mL
Growth in MFIC test (A. flavus ATCC 9643 [7]; 125 µg/ml): +
Growth in MFIC test (A. flavus ATCC 9643 [7]; 250 µg/ml): -
Growth in MFIC test (A. flavus ATCC 9643 [7]; 500 µg/ml): -
Growth in MFIC test (A. flavus ATCC 9643 [7]; 1000 µg/ml): -
Dose of MFIC (A. flavus ATCC 9643 [7]): 250 µg/mL
Activity spectrum (MLFC) ([8]; 125 µg/ml): 0/2 (0%)
Activity spectrum (MLFC) ([8]; 250 µg/ml): 0/2 (0%)
Activity spectrum (MLFC) ([8]; 500 µg/ml): 2/2 (100%)
Activity spectrum (MLFC) ([8]; 1000 µg/ml): 2/2 (100%)
viability at 31.25 µg/ml ([9]; 31.25 µg/ml): 99.9%
viability at 62.5 µg/ml ([9]; 62.5 µg/ml): 99.8%
viability at 125 µg/ml ([9]; 125 µg/ml): 99.9%
viability at 250 µg/ml ([9]; 250 µg/ml): 99.8%
viability at 500 µg/ml ([9]; 500 µg/ml): 99.6%
viability at 1000 µg/ml ([9]; 1000 µg/ml): 99.2%
Toxicity % ([10]; 31.25 µg/ml): 0.177%
Toxicity % ([10]; 62.5 µg/ml): 0.118%
Toxicity % ([10]; 125 µg/ml): 0.118%
Toxicity % ([10]; 250 µg/ml): 0.236%
Toxicity % ([10]; 500 µg/ml): 0.354%
Toxicity % ([10]; 1000 µg/ml): 0.767%
IC50 (cytotoxicity) ([10]; tested up to 1000 µg/ml): no IC50 dose obtained; also recorded: no IC50 dose was determined

SMILES: O=C1c2c(Br)c(Br)c(Br)c(Br)c2C(=O)N1N=Cc1cn(-c2ccccc2)nc1-c1ccccc1 [compound 6, 4,5,6,7-tetrabromo-2-(((1,3-diphenyl-1H-pyrazol-4-yl)methylene)amino)isoindoline-1,3-dione]
minimum inhibitory concentration (A. flavus): 250 µg/mL (≈ 353 µM)
zone of inhibition at 1000 µg/mL [1]: 0 mm
zone of inhibition at 1000 µg/mL (A. niger ATCC 11414 [2]): 0 mm
minimum inhibitory concentration (A. niger): 250 µg/mL (≈ 353 µM)
minimum inhibitory concentration (A. fumigatus): 250 µg/mL (≈ 353 µM)
zone of inhibition at 1000 µg/mL (A. flavus ATCC 9643 [5]; 72 h, 28 °C): 0 mm
zone of inhibition at 1000 µg/mL (R. oryzae ATCC 96382): 0 mm

Source: publication PMC11800497, “Antifungal activity and biocompatibility assessment with molecular docking and dynamic simulations of new pyrazole derivatives” (BMC Biotechnology, 2025)
